# Laboratory results taken from patent EP2727916A1, “Neuroprotective multi-target directed drugs” (Universitat Autònoma de Barcelona, priority 2012, dated 2014).
# Read-outs that look alike come from different tables or passages of the source.
# Legend:
# bovine lung SSAO = target: T1, bovine lung SSAO (Bos taurus, UniProt Q9TTK6); test: Inhibition of semicarbazide sensitive amine oxidase (SSAO), radiochemical; assay type: biochemical; settings: bovine lung SSAO; mean ± standard error of the mean; read-out: IC50 bovineSSAO
# T1 construct: and bovine lung SSAO by compounds of the invention; from tissue; host or cells: bovine lung
# T1 sequence (Q9TTK6 1-763): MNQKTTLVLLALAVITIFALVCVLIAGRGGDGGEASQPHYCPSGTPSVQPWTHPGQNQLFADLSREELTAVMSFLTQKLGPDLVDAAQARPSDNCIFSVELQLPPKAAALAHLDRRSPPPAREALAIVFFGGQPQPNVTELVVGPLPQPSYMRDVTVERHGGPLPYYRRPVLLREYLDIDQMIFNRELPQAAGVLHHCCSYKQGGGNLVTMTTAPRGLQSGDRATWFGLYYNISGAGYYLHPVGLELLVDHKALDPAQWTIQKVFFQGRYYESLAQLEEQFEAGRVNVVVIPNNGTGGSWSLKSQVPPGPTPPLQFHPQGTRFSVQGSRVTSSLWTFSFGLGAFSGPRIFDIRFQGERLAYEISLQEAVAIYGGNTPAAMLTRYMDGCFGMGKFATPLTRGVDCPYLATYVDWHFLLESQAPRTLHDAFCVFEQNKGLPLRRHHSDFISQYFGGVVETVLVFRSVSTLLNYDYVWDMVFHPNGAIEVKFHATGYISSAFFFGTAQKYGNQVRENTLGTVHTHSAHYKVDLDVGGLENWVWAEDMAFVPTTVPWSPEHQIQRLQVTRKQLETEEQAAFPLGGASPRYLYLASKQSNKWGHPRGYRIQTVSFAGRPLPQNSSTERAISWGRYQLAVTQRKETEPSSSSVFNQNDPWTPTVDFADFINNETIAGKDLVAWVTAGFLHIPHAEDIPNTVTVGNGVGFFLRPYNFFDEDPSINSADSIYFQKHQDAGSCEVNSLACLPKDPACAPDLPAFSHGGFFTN
# [1] = target: T2, electrophorus electricus acetylcholinesterase (eeAChE) (Electrophorus electricus, UniProt O42275); test: biochemical; assay type: biochemical; settings: 20 minutes incubation at 37°C; mean ± standard error of the mean; read-out: IC50 EeAChE
# [2] = target: T3, equine serum butyrylcholinesterase (eqBuChE) (Equus caballus, UniProt P81908); test: biochemical; assay type: biochemical
# ratMAO-A [3] = target: T4, ratMAO-A (Rattus norvegicus, UniProt P21396); test: MAO-A inhibition, radiometric method of Fowler and Tipton (14C 5-HT); assay type: biochemical; parameters: MAO-A and MAO-B activities were determined in rat brain homogenate; from tissue; host or cells: rat brain homogenate per the methods; settings: 30 min pre-incubation at 37 °C; 100µM 5-HT; mean ± standard error of the mean
# T4 sequence (P21396 1-526): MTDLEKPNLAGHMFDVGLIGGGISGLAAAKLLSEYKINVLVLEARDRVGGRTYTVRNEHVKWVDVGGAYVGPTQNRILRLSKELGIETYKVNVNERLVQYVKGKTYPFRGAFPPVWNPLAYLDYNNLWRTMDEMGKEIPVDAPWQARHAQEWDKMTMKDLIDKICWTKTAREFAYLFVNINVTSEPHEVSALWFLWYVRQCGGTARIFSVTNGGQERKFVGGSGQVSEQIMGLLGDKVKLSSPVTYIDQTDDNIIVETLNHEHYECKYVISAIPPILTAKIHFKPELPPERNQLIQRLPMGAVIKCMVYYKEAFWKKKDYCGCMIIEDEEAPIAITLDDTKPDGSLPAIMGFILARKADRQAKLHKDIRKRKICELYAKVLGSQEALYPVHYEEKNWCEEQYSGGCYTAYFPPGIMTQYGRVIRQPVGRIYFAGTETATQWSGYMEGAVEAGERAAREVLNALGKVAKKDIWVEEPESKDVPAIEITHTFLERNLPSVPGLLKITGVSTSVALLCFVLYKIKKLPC
# ratMAO-B [4] = target: T5, ratMAO-B (Rattus norvegicus, UniProt P19643); test: MAO-B inhibition, radiometric method of Fowler and Tipton (14C PEA); assay type: biochemical; parameters: MAO-A and MAO-B activities were determined in rat brain homogenate; from tissue; host or cells: rat brain homogenate per the methods; settings: for IC50: 30 min pre-incubation at 37 °C, 20 µM PEA, mean ± standard error of the mean
# T5 sequence (P19643 1-520): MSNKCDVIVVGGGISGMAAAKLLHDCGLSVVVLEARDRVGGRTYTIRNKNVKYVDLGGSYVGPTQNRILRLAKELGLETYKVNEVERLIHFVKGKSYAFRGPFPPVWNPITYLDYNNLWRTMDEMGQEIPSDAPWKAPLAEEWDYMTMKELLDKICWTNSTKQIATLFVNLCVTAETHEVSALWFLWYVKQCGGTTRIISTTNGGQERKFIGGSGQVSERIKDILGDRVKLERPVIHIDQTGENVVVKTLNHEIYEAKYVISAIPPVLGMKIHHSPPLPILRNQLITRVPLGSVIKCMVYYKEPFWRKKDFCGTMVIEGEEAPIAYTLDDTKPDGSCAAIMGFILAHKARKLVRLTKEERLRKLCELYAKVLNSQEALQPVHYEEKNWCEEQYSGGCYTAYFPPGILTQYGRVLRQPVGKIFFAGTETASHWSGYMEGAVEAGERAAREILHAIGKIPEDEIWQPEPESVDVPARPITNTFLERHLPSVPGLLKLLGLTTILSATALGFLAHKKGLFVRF
# [5] = target: T2, electrophorus electricus acetylcholinesterase (eeAChE); settings: reference value, footnote (a) Zheng et al. 2010; cited from earlier work
# [6] = target: T3, equine serum butyrylcholinesterase (eqBuChE); settings: reference value, footnote (a) Zheng et al. 2010; cited from earlier work
# ratMAO-A [7] = target: T4, ratMAO-A; parameters: MAO-A and MAO-B activities were determined in rat brain homogenate; from tissue; host or cells: rat brain homogenate per the methods; settings: reference value, footnote (a) Zheng et al. 2010; cited from earlier work
# ratMAO-B [8] = target: T5, ratMAO-B; parameters: MAO-A and MAO-B activities were determined in rat brain homogenate; from tissue; host or cells: rat brain homogenate per the methods; settings: reference value, footnote (a) Zheng et al. 2010; cited from earlier work
# [9] = 20 minutes incubation at 37°C, mean ± standard error of the mean, read-out: IC50 eqBuChE
# T2 sequence (O42275 24-633): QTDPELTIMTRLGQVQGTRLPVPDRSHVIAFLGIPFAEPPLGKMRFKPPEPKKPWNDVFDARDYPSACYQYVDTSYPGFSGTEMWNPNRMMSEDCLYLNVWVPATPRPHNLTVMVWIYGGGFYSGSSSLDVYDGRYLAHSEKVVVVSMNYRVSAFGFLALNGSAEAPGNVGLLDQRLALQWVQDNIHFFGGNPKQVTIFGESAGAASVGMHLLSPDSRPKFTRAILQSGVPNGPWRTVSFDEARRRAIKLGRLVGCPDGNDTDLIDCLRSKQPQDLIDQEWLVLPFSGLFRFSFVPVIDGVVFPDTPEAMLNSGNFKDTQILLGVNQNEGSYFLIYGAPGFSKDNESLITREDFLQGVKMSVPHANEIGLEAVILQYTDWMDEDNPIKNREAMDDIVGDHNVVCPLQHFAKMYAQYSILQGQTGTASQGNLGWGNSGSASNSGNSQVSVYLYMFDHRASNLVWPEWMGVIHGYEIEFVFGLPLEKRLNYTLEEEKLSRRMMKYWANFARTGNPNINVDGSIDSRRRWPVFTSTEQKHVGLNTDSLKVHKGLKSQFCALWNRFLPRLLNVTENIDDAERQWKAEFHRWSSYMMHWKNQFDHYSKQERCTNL
# T3 sequence (P81908 whole entry): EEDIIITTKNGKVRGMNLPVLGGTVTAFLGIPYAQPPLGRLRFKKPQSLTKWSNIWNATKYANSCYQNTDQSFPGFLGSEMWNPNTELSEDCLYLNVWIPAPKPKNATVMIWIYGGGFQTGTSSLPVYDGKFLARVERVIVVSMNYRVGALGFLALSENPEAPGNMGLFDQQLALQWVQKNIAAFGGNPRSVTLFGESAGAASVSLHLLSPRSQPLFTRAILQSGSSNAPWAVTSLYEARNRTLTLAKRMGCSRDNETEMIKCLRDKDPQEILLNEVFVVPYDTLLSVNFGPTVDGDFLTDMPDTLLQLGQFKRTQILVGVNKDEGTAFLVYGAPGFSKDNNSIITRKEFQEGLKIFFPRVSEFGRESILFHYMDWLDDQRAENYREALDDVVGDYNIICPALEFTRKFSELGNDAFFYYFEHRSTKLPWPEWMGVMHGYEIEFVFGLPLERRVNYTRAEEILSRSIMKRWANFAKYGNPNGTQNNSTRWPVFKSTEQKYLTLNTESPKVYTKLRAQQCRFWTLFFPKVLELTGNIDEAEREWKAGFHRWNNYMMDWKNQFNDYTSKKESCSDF
SMILES,IC50 (bovine lung SSAO) [µM],IC50 [1] [µM],"IC50 [2, 9] [µM]",BuChE/ AChE ([2]; ratio of IC50 values),IC50 (ratMAO-A [3]) [µM],MAO-B/ MAO-A (ratMAO-B [4]),IC50 (ratMAO-B [4]) [µM],MAO-B/ MAO-A (ratMAO-B [4]; ratio of IC50 values),BuChE/ AChE [2],IC50 [2] [µM],IC50 [5] [µM],IC50 [6] [µM],IC50 eqBuChE [6],IC50 (ratMAO-A [7]) [µM],IC50 (ratMAO-B [8]) [µM]
"C#CCN(Cc1ccc(O)c2ncccc12)C(C#N)C1CCN(Cc2ccccc2)CC1 (centres unmarked) [Compound 2, 2-(1-benzylpiperidin-4-yl)-2-(((8-hydroxyquinolin-5-yl)methyl)(prop-2-ynyl)amino)acetonitrile]",18 ± 5,14.5 ± 3.7,13.5 ± 1.8,0.92,22.1 ± 0.7,1.7,39.5 ± 1.4,–,–,–,–,–,–,–,–
"C#CCN(Cc1ccc(O)c2ncccc12)CC1CCN(Cc2ccccc2)CC1 [Compound 3, 5-((((1-benzylpiperidin-4-yl)methyl)(prop-2-ynyl)amino)methyl)quinolin-8-ol]",≥ 100,17 ± 4.7,12.8 ± 1.4,0.75,85.4 ± 3.7,–,19.4 ± 3.2,0.22,–,–,–,–,–,–,–
"C#CCN(Cc1ccc(O)c2ncccc12)C(C#N)CC1CCN(Cc2ccccc2)CC1 (centres unmarked) [Compound 4, 3-(1-benzylpiperidin-4-yl)-2-(((8-hydroxyquinolin-5-yl)methyl)(prop-2-ynyl)amino)propanenitrile]",2.79 ± 0.7,5.53 ± 0.5,–,–,9.67 ± 1.5,1.2,12.4 ± 2.5,–,1.1,6.06 ± 0.6,–,–,–,–,–
"C#CCN(CCC1CCN(Cc2ccccc2)CC1)Cc1ccc(O)c2ncccc12 [Compound 5, 5-(((2-(1-benzylpiperidin-4-yl)ethyl)(prop-2-ynyl)amino)methyl)quinolin-8-ol]",39.7 ± 16,5.01 ± 0.8,14.5 ± 3.6,2.8,≥ 100,–,50.08 ± 0.5,≥ 0.5,–,–,–,–,–,–,–
"C#CCN(CCCC1CCN(Cc2ccccc2)CC1)Cc1ccc(O)c2ncccc12 [Compound 7, 5-(((3-(1-benzylpiperidin-4-yl)propyl)(prop-2-ynyl)amino)methyl)quinolin-8-ol]",61.1 ± 21.4,2.67 ± 0.4,4.52 ± 0.3,1.6,≥ 100,–,34.5 ± 3.5,≥ 0.34,–,–,–,–,–,–,–
C#CCN(C)Cc1ccc(O)c2ncccc12 [Compound M-30],–,–,–,–,–,1.5,–,–,–,–,114 ± 14.1,≥ 100,inactive,0.037 ± 0.02,0.057 ± 0.02
